Reference: PubChem BioAssay AID1963444 (Molecular Pharmacology Branch, DTP, NCI, 2024)

Tested on: HSSY-II complex spheroid growth, percent test/control
Experiment: Anticancer human tumor HSSY-II cell line growth inhibition [Asc];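 also: spheroids exposed to drug for 7 days before reading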
Conditions: for IC50: curve of first compound; for viability, T/C: stronger effect = lower value
Procedure, shortened: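 Tumor cells were grown as complex spheroids with human endothelial cells (HUVEC) and human mesenchymal stem cells as stroma. Agents were tested alone and in combination, in half-log steps down from the clinical Cmax, or from 10 microM where Cmax was unknown.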

[1] = second compound 0.1 µM, first compound 0.0316 µM
[2] = second compound 0.1 µM, first compound 0.1 µM
[3] = second compound 0.1 µM, first compound 0.316 µM
[4] = second compound 0.1 µM, first compound 1 µM
[5] = second compound 0.1 µM, first compound 3.16 µM
[6] = second compound 0.1 µM, first compound 10 µM
[7] = second compound 0.316 µM, first compound 0.0316 µM
[8] = second compound 0.316 µM, first compound 0.1 µM
[9] = second compound 0.316 µM, first compound 0.316 µM
[10] = second compound 0.316 µM, first compound 1 µM
[11] = second compound 0.316 µM, first compound 3.16 µM
[12] = second compound 0.316 µM, first compound 10 µM
[13] = second compound 1 µM, first compound 0.0316 µM
[14] = second compound 1 µM, first compound 0.1 µM
[15] = second compound 1 µM, first compound 0.316 µM
[16] = second compound 1 µM, first compound 1 µM
[17] = second compound 1 µM, first compound 3.16 µM
[18] = second compound 1 µM, first compound 10 µM
[19] = second compound 3.16 µM, first compound 0.0316 µM
[20] = second compound 3.16 µM, first compound 0.1 µM
[21] = second compound 10 µM, first compound 0.0316 µM
[22] = second compound 10 µM, first compound 0.1 µM

`C=C(F)C(=O)N1CCN(c2nc(OCC3CCCN3C)nc3c2CCN(c2cccc4cccc(Cl)c24)C3)CC1CC#N` (stereo not given) + CNC(C)C(=O)NC1CN(S(=O)(=O)c2cccc(S(=O)(=O)N3CCC4CCC(C(=O)NC(c5ccccc5)c5ccccc5)N4C(=O)C(NC(=O)C(C)NC)C3)c2)CCC2CCC(C(=O)NC(c3ccccc3)c3ccccc3)N2C1=O was tested, and the IC50 (second compound 0.01 µM) was 618 nM, the IC50 (second compound 0.0316 µM) was 1030 nM and the IC50 (second compound 0.1 µM) was 876 nM. For the same compound, the IC50 (second compound 0.316 µM) was 895 nM, the IC50 (second compound 1 µM) was 650 nM and the viability, T/C (second compound 0.01 µM, first compound 0.0316 µM) was 95.8%. For the same compound, the viability, T/C (second compound 0.01 µM, first compound 0.1 µM) was 91%, the viability, T/C (second compound 0.01 µM, first compound 0.316 µM) was 61.4% and the viability, T/C (second compound 0.01 µM, first compound 1 µM) was 45.9%. For the same compound, the viability, T/C (second compound 0.01 µM, first compound 3.16 µM) was 0.97%, the viability, T/C (second compound 0.01 µM, first compound 10 µM) was 0.1% and the viability, T/C (second compound 0.0316 µM, first compound 0.0316 µM) was 89.3%. The viability, T/C (second compound 0.0316 µM, first compound 0.1 µM) was 80.9%, the viability, T/C (second compound 0.0316 µM, first compound 0.316 µM) was 68.7% and the viability, T/C (second compound 0.0316 µM, first compound 1 µM) was 53.9%. For the same compound, the viability, T/C (second compound 0.0316 µM, first compound 3.16 µM) was 0.93%, the viability, T/C (second compound 0.0316 µM, first compound 10 µM) was 0.1% and the viability, T/C [1] was 90%. For the same compound, the viability, T/C [2] was 91.2%, the viability, T/C [3] was 79.3% and the viability, T/C [4] was 47.6%. It also gave a viability, T/C [5] of 0.66%, a viability, T/C [6] of 0.1% and a viability, T/C [7] of 88.5%. It also gave a viability, T/C [8] of 74.5%, a viability, T/C [9] of 74.4% and a viability, T/C [10] of 47.8%. It also gave a viability, T/C [11] of 0.45%, a viability, T/C [12] of 0.12% and a viability, T/C [13] of 79.6%. It also gave a viability, T/C [14] of 80.6%, a viability, T/C [15] of 65.1% and a viability, T/C [16] of 41.6%. The viability, T/C [17] was 0.37% and the viability, T/C [18] was 0.19%.

`CCN1C(C(=O)NC23CCC(C(=O)O)(CC2)CC3)C(c2cccc(Cl)c2F)C2(C(=O)Nc3cc(Cl)ccc32)C12CCCCC2` (stereo not given) + CNC(C)C(=O)NC1CN(S(=O)(=O)c2cccc(S(=O)(=O)N3CCC4CCC(C(=O)NC(c5ccccc5)c5ccccc5)N4C(=O)C(NC(=O)C(C)NC)C3)c2)CCC2CCC(C(=O)NC(c3ccccc3)c3ccccc3)N2C1=O was tested, and the IC50 (second compound 0.01 µM) was 88.2 nM, the IC50 (second compound 0.0316 µM) was 99 nM and the IC50 (second compound 0.1 µM) was 81.9 nM. It also gave an IC50 (second compound 0.316 µM) of 77.7 nM, an IC50 (second compound 1 µM) of 67.7 nM and a viability, T/C (second compound 0.01 µM, first compound 0.00949 µM) of 96%. For the same compound, the viability, T/C (second compound 0.01 µM, first compound 0.03 µM) was 82.6%, the viability, T/C (second compound 0.01 µM, first compound 0.0949 µM) was 47.9% and the viability, T/C (second compound 0.01 µM, first compound 0.3 µM) was 14.6%. It also gave a viability, T/C (second compound 0.01 µM, first compound 0.949 µM) of 2.75%, a viability, T/C (second compound 0.01 µM, first compound 3 µM) of 0.77% and a viability, T/C (second compound 0.0316 µM, first compound 0.00949 µM) of 84.7%. It also gave a viability, T/C (second compound 0.0316 µM, first compound 0.03 µM) of 65.1%, a viability, T/C (second compound 0.0316 µM, first compound 0.0949 µM) of 55.9% and a viability, T/C (second compound 0.0316 µM, first compound 0.3 µM) of 14.8%. The viability, T/C (second compound 0.0316 µM, first compound 0.949 µM) was 1.52%, the viability, T/C (second compound 0.0316 µM, first compound 3 µM) was 0.58% and the viability, T/C (second compound 0.1 µM, first compound 0.00949 µM) was 90%. It also gave a viability, T/C (second compound 0.1 µM, first compound 0.03 µM) of 81.2%, a viability, T/C (second compound 0.1 µM, first compound 0.0949 µM) of 44.6% and a viability, T/C (second compound 0.1 µM, first compound 0.3 µM) of 13.4%. It also gave a viability, T/C (second compound 0.1 µM, first compound 0.949 µM) of 1.69%, a viability, T/C (second compound 0.1 µM, first compound 3 µM) of 0.35% and a viability, T/C (second compound 0.316 µM, first compound 0.00949 µM) of 95.7%. The viability, T/C (second compound 0.316 µM, first compound 0.03 µM) was 85.1%, the viability, T/C (second compound 0.316 µM, first compound 0.0949 µM) was 41.8% and the viability, T/C (second compound 0.316 µM, first compound 0.3 µM) was 11.2%. For the same compound, the viability, T/C (second compound 0.316 µM, first compound 0.949 µM) was 1%, the viability, T/C (second compound 0.316 µM, first compound 3 µM) was 0.23% and the viability, T/C (second compound 1 µM, first compound 0.00949 µM) was 82.9%. The viability, T/C (second compound 1 µM, first compound 0.03 µM) was 74.4%, the viability, T/C (second compound 1 µM, first compound 0.0949 µM) was 39.8% and the viability, T/C (second compound 1 µM, first compound 0.3 µM) was 9.04%. The viability, T/C (second compound 1 µM, first compound 0.949 µM) was 1.32% and the viability, T/C (second compound 1 µM, first compound 3 µM) was 0.3%.

For `Cn1ncnc1[C@H]1c2n[nH]c(=O)c3cc(F)cc(c23)N[C@@H]1c1ccc(F)cc1` + Cc1c(S(C)(=O)=O)c(-c2cc(F)cc(N3CCN(c4ccc(NS(=O)(=O)c5ccc(NC(CCN6CCC(C(=O)OCCCP(=O)(O)O)CC6)CSc6ccccc6)c(S(=O)(=O)C(F)(F)F)c5)cc4)CC3)c2)c(-c2ccc(Cl)cc2)n1C(C)C, the IC50 (second compound 0.1 µM) was 15.4 nM, the IC50 (second compound 0.316 µM) was 12.7 nM and the IC50 (second compound 1 µM) was 7.69 nM. It also gave an IC50 (second compound 3.16 µM) of 8.69 nM, an IC50 (second compound 10 µM) of 6.57 nM and a viability, T/C (second compound 0.1 µM, first compound 0.000316 µM) of 100%. The viability, T/C (second compound 0.1 µM, first compound 0.001 µM) was 98.9%, the viability, T/C (second compound 0.1 µM, first compound 0.00316 µM) was 81.1% and the viability, T/C (second compound 0.1 µM, first compound 0.01 µM) was 55.8%. It also gave a viability, T/C [1] of 39.5%, a viability, T/C [2] of 23.1% and a viability, T/C (second compound 0.316 µM, first compound 0.000316 µM) of 97.6%. It also gave a viability, T/C (second compound 0.316 µM, first compound 0.001 µM) of 82%, a viability, T/C (second compound 0.316 µM, first compound 0.00316 µM) of 71.7% and a viability, T/C (second compound 0.316 µM, first compound 0.01 µM) of 55.5%. For the same compound, the viability, T/C [7] was 33.6%, the viability, T/C [8] was 18.2% and the viability, T/C (second compound 1 µM, first compound 0.000316 µM) was 96.4%. The viability, T/C (second compound 1 µM, first compound 0.001 µM) was 82.2%, the viability, T/C (second compound 1 µM, first compound 0.00316 µM) was 63.4% and the viability, T/C (second compound 1 µM, first compound 0.01 µM) was 50.3%. It also gave a viability, T/C [13] of 22.4%, a viability, T/C [14] of 13% and a viability, T/C (second compound 3.16 µM, first compound 0.000316 µM) of 95.8%. The viability, T/C (second compound 3.16 µM, first compound 0.001 µM) was 84.2%, the viability, T/C (second compound 3.16 µM, first compound 0.00316 µM) was 73.6% and the viability, T/C (second compound 3.16 µM, first compound 0.01 µM) was 47.5%. For the same compound, the viability, T/C [19] was 21.6%, the viability, T/C [20] was 10.4% and the viability, T/C (second compound 10 µM, first compound 0.000316 µM) was 82.2%. It also gave a viability, T/C (second compound 10 µM, first compound 0.001 µM) of 75.5%, a viability, T/C (second compound 10 µM, first compound 0.00316 µM) of 65.4% and a viability, T/C (second compound 10 µM, first compound 0.01 µM) of 42.4%. For the same compound, the viability, T/C [21] was 16.9% and the viability, T/C [22] was 11.3%.

Compound `O=C(c1cc(Cc2n[nH]c(=O)c3ccccc23)ccc1F)N1CCN(C(=O)C2CC2)CC1` + Cc1c(S(C)(=O)=O)c(-c2cc(F)cc(N3CCN(c4ccc(NS(=O)(=O)c5ccc(NC(CCN6CCC(C(=O)OCCCP(=O)(O)O)CC6)CSc6ccccc6)c(S(=O)(=O)C(F)(F)F)c5)cc4)CC3)c2)c(-c2ccc(Cl)cc2)n1C(C)C has an IC50 (second compound 0.1 µM) of 2440 nM, an IC50 (second compound 0.316 µM) of 1960 nM and an IC50 (second compound 1 µM) of 1500 nM. The IC50 (second compound 3.16 µM) was 1810 nM, the IC50 (second compound 10 µM) was 1460 nM and the viability, T/C [1] was 103%. For the same compound, the viability, T/C [2] was 98.9%, the viability, T/C [3] was 93% and the viability, T/C [4] was 77.8%. For the same compound, the viability, T/C [5] was 41.7%, the viability, T/C [6] was 8.94% and the viability, T/C [7] was 82.7%. For the same compound, the viability, T/C [8] was 88.3%, the viability, T/C [9] was 86.8% and the viability, T/C [10] was 78.1%. The viability, T/C [11] was 29.8%, the viability, T/C [12] was 6.49% and the viability, T/C [13] was 81.8%. The viability, T/C [14] was 92.8%, the viability, T/C [15] was 76.2% and the viability, T/C [16] was 64.1%. It also gave a viability, T/C [17] of 26.4%, a viability, T/C [18] of 5.63% and a viability, T/C [19] of 93.2%. For the same compound, the viability, T/C [20] was 92%, the viability, T/C (second compound 3.16 µM, first compound 0.316 µM) was 82.5% and the viability, T/C (second compound 3.16 µM, first compound 1 µM) was 76%. It also gave a viability, T/C (second compound 3.16 µM, first compound 3.16 µM) of 26.5%, a viability, T/C (second compound 3.16 µM, first compound 10 µM) of 3.28% and a viability, T/C [21] of 83.5%. For the same compound, the viability, T/C [22] was 90.2%, the viability, T/C (second compound 10 µM, first compound 0.316 µM) was 78.8% and the viability, T/C (second compound 10 µM, first compound 1 µM) was 66.7%. It also gave a viability, T/C (second compound 10 µM, first compound 3.16 µM) of 16.9% and a viability, T/C (second compound 10 µM, first compound 10 µM) of 2.61%.
